Test results as given in patent US20160237059A1, “HETEROCYCLIC SUBSTITUTED TRIFLUOROMETHYL PYRIMIDINONES AND THEIR USE” (BAYER PHARMA AKTIENGESELLSCHAFT, priority 2013, published 2016).

Tests used:
Type in all cases: cell-based
human CCR2 = molecular target: T1, human CCR2 (Homo sapiens, UniProt P41597); assay: Functional Ca2+ release test (B-1); settings: Chem-1 cell line transfected with human CCR2; 50% inhibition of the MCP-1 effect, MCP-1 at EC50 (about 5 nM); in some cases means of several determinations
T1 construct: host or cells: Chem-1 cell line
T1 sequence (P41597 1-360 isoform P41597-2): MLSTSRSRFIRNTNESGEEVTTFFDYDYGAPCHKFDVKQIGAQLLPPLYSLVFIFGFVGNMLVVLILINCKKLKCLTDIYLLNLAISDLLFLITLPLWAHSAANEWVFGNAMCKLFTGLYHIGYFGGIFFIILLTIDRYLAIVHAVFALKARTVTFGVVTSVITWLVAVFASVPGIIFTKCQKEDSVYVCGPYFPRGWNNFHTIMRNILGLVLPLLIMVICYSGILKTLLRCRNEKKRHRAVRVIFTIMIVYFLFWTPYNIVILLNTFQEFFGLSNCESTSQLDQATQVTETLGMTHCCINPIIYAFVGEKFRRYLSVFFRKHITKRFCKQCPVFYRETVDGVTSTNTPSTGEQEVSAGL
Procedure, shortened: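 Chem-1 cells expressing human CCR2, loaded with Fluo-4 for 60 min at 37° C, were preincubated 10 min with compound (10-point, 1:3.16 dilutions), then stimulated with MCP-1 at its predetermined EC50 (about 5 nM). Ca2+ release was monitored for 120 s. IC50 came from a 4-parameter Hill fit.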

murine CCR2 [1] = molecular target: T2, murine CCR2 (Mus musculus, UniProt P51683); assay: Functional β-arrestin recruiting test with murine MCP-1 (B-2b); settings: U2OS β-arrestin cell line transfected with murine CCR2; agonist murine MCP-1; in some cases means of several determinations
T2 construct: host or cells: U2OS β-arrestin cell line
Procedure, shortened: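 In a PathHunter β-galactosidase complementation assay, U2OS cells expressing murine CCR2 were preincubated 10 min with compound (10-point, 1:3.16 dilutions), then challenged with murine MCP-1 at its predetermined EC50 for 90 min at 37 °C. Luminescence was read after 60 min, and IC50 was fitted with a 4-parameter Hill function.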

murine CCR2 [2] = molecular target: T2, murine CCR2; assay: Functional β-arrestin recruiting test with human MCP-1 (B-2a); settings: U2OS β-arrestin cell line transfected with murine CCR2; agonist human MCP-1 at EC50 (about 3 nM); in some cases means of several determinations
Procedure, shortened: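 Antagonist mode in U2OS cells expressing murine CCR2, read by PathHunter β-galactosidase complementation luminescence. Cells pre-incubated 10 min with 10-point compound dilutions (1:3.16 steps), then stimulated with human MCP-1 at its EC50 (usually about 3 nM) for 90 min at 37° C.; IC50 from 4-parameter logistic fit.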

T2 sequence (P51683 whole entry): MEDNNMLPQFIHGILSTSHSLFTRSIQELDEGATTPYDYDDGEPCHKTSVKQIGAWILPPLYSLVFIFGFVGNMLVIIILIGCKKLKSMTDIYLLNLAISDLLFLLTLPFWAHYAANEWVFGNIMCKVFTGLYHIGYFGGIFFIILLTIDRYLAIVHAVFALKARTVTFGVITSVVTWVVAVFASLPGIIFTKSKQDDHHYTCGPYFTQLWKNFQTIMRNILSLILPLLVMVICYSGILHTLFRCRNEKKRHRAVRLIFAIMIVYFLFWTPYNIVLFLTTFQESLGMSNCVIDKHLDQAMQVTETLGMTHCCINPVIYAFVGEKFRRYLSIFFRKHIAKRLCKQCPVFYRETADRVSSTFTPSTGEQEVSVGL

Nc1ccnc(-c2nc(C(F)(F)F)c(Oc3ccc(Cl)c(C(F)(F)F)c3)c(=O)[nH]2)c1 [Example 45, 2-(4-aminopyridin-2-yl)-5-[4-chloro-3-(trifluoromethyl)phenoxy]-6-(trifluoromethyl)pyrimidin-4(3H)-one] gave an IC50 (human CCR2) of 4.7 nM, an IC50 (murine CCR2 [1]) of 553 nM and an IC50 (murine CCR2 [2]) of 86 nM.
With Nc1cnn(-c2nc(C(F)(F)F)c(Oc3ccc(Cl)c(Cl)c3)c(=O)[nH]2)c1 [Example 47, 2-(4-Amino-1H-pyrazol-1-yl)-5-(3,4-dichlorophenoxy)-6-(trifluoromethyl)pyrimidin-4(3H)-one] the IC50 (human CCR2) was 1 nM, the IC50 (murine CCR2 [1]) was 95 nM and the IC50 (murine CCR2 [2]) was 3.6 nM.
For O=c1[nH]c(-c2cc[nH]n2)nc(C(F)(F)F)c1Oc1ccc(Cl)c(Cl)c1 [Example 49, 5-(3,4-Dichlorophenoxy)-2-(1H-pyrazol-3-yl)-6-(trifluoromethyl)pyrimidin-4(3H)-one], the IC50 (human CCR2) was 0.6 nM, the IC50 (murine CCR2 [1]) was 12 nM and the IC50 (murine CCR2 [2]) was 2.5 nM.
O=c1[nH]c(-n2cccn2)nc(C(F)(F)F)c1Oc1ccc(Cl)c(Cl)c1 [Example 51, 5-(3,4-dichlorophenoxy)-2-(1H-pyrazol-1-yl)-6-(trifluoromethyl)pyrimidin-4(3H)-one] showed an IC50 (human CCR2) of 0.5 nM, an IC50 (murine CCR2 [1]) of 112 nM and an IC50 (murine CCR2 [2]) of 20 nM.
In the case of Cn1cnc(-c2nc(C(F)(F)F)c(Cc3ccc(Cl)c(Cl)c3)c(=O)[nH]2)c1 [Example 52, 5-(3,4-dichlorobenzyl)-2-(1-methyl-1H-imidazol-4-yl)-6-(trifluoromethyl)pyrimidin-4(3H)-one], the IC50 (human CCR2) is reported as 1.3 nM, the IC50 (murine CCR2 [1]) is reported as 439 nM and the IC50 (murine CCR2 [2]) is reported as 85 nM.
With O=c1[nH]c(-n2cccn2)nc(C(F)(F)F)c1Cc1ccc(Cl)c(Cl)c1 [Example 53, 5-(3,4-dichlorobenzyl)-2-(1H-pyrazol-1-yl)-6-(trifluoromethyl)pyrimidin-4(3H)-one] the IC50 (human CCR2) was 1.8 nM, the IC50 (murine CCR2 [1]) was 440 nM and the IC50 (murine CCR2 [2]) was 67 nM.
Cc1cc(-c2nc(C(F)(F)F)c(Oc3ccc(Cl)c(Cl)c3)c(=O)[nH]2)nn1C [Example 54, 5-(3,4-dichlorophenoxy)-2-(1,5-dimethyl-1H-pyrazol-3-yl)-6-(trifluoromethyl)pyrimidin-4(3H)-one] was tested, and the IC50 (human CCR2) was 2.8 nM, the IC50 (murine CCR2 [1]) was 458 nM and the IC50 (murine CCR2 [2]) was 51 nM.
Cn1cnc(-c2nc(C(F)(F)F)c(Oc3ccc(Cl)c(C(F)(F)F)c3)c(=O)[nH]2)c1 [Example 59, 5-[4-chloro-3-(trifluoromethyl)phenoxy]-2-(1-methyl-1H-imidazol-4-yl)-6-(trifluoromethyl)pyrimidin-4(3H)-one] showed an IC50 (human CCR2) of 0.6 nM, an IC50 (murine CCR2 [1]) of 106 nM and an IC50 (murine CCR2 [2]) of 12 nM.
With O=c1[nH]c(-c2cc[nH]n2)nc(C(F)(F)F)c1Oc1ccc(Cl)c(C(F)(F)F)c1 [Example 65, 5-[4-chloro-3-(trifluoromethyl)phenoxy]-2-(1H-pyrazol-3-yl)-6-(trifluoromethyl)pyrimidin-4(3H)-one] the IC50 (human CCR2) was 0.3 nM, the IC50 (murine CCR2 [1]) was 4.8 nM and the IC50 (murine CCR2 [2]) was 1.8 nM.
O=c1[nH]c(-c2cn[nH]c2)nc(C(F)(F)F)c1Oc1ccc(Cl)c(C(F)(F)F)c1 [Example 70, 5-[4-chloro-3-(trifluoromethyl)phenoxy]-2-(1H-pyrazol-4-yl)-6-(trifluoromethyl)pyrimidin-4(3H)-one] showed an IC50 (human CCR2) of 0.8 nM, an IC50 (murine CCR2 [1]) of 154 nM and an IC50 (murine CCR2 [2]) of 56 nM.
O=c1[nH]c(-n2cccn2)nc(C(F)(F)F)c1Cc1ccc(Cl)c(C(F)(F)F)c1 [Example 71, 5-[4-chloro-3-(trifluoromethyl)benzyl]-2-(1H-pyrazol-1-yl)-6-(trifluoromethyl)pyrimidin-4(3H)-one] gave an IC50 (human CCR2) of 3 nM, an IC50 (murine CCR2 [1]) of 1080 nM and an IC50 (murine CCR2 [2]) of 57 nM.
With O=c1[nH]c(-n2cccn2)nc(C(F)(F)F)c1Oc1ccc(Cl)c(C(F)(F)F)c1 [Example 73, 5-[4-chloro-3-(trifluoromethyl)phenoxy]-2-(1H-pyrazol-1-yl)-6-(trifluoromethyl)pyrimidin-4(3H)-one] the IC50 (human CCR2) was 0.4 nM, the IC50 (murine CCR2 [1]) was 37 nM and the IC50 (murine CCR2 [2]) was 12 nM.
